Our source for the inhibition values is patent publication US20260297542A1, “HERBICIDE RESISTANT PLANTS” (SYNGENTA CROP PROTECTION AG, priority 2023, published 2026).

Holding throughout (assay): E. coli hemG growth inhibition by herbicide, AtPPO1 variant
Assay type in all cases: cell-based
Holding throughout (conditions): read-out: percentage growth inhibition

One experiment concerns the target T1, AtPPO1 Y426L (Arabidopsis thaliana, UniProt P55826, Y426L).
T1 construct: expressed in transfected cells; host or cells: E. coli BL21(DE3) hemG (pET24a, T7 promoter)
T1 sequence (P55826 35-537 Y426L): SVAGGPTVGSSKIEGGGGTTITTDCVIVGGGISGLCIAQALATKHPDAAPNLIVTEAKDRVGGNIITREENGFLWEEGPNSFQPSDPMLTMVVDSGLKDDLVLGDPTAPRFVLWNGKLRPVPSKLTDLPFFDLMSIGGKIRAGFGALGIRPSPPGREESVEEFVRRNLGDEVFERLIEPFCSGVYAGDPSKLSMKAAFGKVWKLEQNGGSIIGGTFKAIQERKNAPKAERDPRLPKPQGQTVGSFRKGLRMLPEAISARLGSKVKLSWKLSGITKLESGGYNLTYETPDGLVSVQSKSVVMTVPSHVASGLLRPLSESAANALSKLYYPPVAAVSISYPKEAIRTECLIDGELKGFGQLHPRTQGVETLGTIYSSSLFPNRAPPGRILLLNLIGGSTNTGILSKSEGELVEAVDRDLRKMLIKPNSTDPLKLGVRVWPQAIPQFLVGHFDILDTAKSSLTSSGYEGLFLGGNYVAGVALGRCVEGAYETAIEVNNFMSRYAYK
The method, boiled down:
(§1)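 E. coli BL21(DE3) ΔhemG::CmR complemented by AtPPO1 variants (pET24a, T7, E. coli codon-optimised); TB + 0.1 mM IPTG, 1:100 inoculum; 6.25 ppm herbicide 0/E or 0.78 ppm herbicide B vs DMSO; 24 h, 37° C, 250 rpm; OD600 at 24 h → % growth inhibition.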

Another experiment deals with T2, AtPPO1 D448L (Arabidopsis thaliana, UniProt P55826, D448L).
T2 construct: expressed in transfected cells; host or cells: E. coli BL21(DE3) hemG, pET24a plasmid
T2 sequence (P55826 35-537 D448L): T1 sequence (P55826 35-537 Y426L) with L392Y, D414L
The method, boiled down: as §1

Another experiment has as its target T3, AtPPO1 F478R (Arabidopsis thaliana, UniProt P55826, F478R).
T3 construct: expressed in transfected cells; host or cells: E. coli BL21(DE3) hemG, pET24a plasmid
T3 sequence (P55826 35-537 F478R): T1 sequence (P55826 35-537 Y426L) with L392Y, F444R
The method, boiled down: as §1

The next experiment addresses T4, AtPPO1 V447I (Arabidopsis thaliana, UniProt P55826, V447I).
T4 construct: expressed in transfected cells; host or cells: E. coli BL21(DE3) hemG (pET24a, T7 promoter)
T4 sequence (P55826 35-537 V447I): T1 sequence (P55826 35-537 Y426L) with L392Y, V413I
The method, boiled down:
as §1

Each structure is given as a SMILES string. Substitutions are numbered along the chain they refer to.

Broadly, the inhibition is the share of the control response that was lost under treatment. For the molecule `C#CCN1C(=O)C(F)(F)Oc2cc(F)c(-n3c(=O)n(C)c(=S)n(C)c3=O)cc21` [Herbicide B, trifludimoxazin], the inhibition at 0.78 ppm on AtPPO1 Y426L is 15%; on AtPPO1 D448L, 38%; on AtPPO1 F478R, 23%; at AtPPO1 V447I it was 35%.
Turning to `CCOC(=O)[C@]1(C)CC(c2cc(-n3c(=O)n(C)c(=S)n(C)c3=O)c(F)cc2Cl)=NO1` [Herbicide D, ethyl (5S)-3-[2-chloro-5-(3,5-dimethyl-2,6-dioxo-4-thioxo-1,3,5-triazinan-1-yl)-4-fluoro-phenyl]-5-methyl-4H-isoxazole-5-carboxylate], the inhibition at 6.25 ppm was determined as 25% on AtPPO1 Y426L, 38% on AtPPO1 D448L, 30% at AtPPO1 F478R and 36% on AtPPO1 V447I.
With `CC(C)N(C)S(=O)(=O)NC(=O)c1cc(-n2c(=O)cc(C(F)(F)F)n(C)c2=O)c(F)cc1Cl` [Herbicide E, saflufenacil], the inhibition at 6.25 ppm at AtPPO1 Y426L was 12%; on AtPPO1 D448L, 54%; on AtPPO1 F478R, 61%; on AtPPO1 V447I, 61%.
